Earlier results as cited in patent US6211152A, “Formulations for peptide release” (Peptech Limited, priority 1995, dated 2001).

Tests used:
dogs/bitches = conditions: overdosing dogs/bitches
prostate cancer in rats = conditions: microencapsulated form, controlled dose over 30 days, vs daily subcutaneous equivalent or double doses of free peptide

| Compound | period of shut down of reproductive function (dogs/bitches) | suppressing serum testosterone levels and prostate tumour weight (prostate cancer in rats) |
| --- | --- | --- |
| CC(C)C[C@H](NC(=O)[C@@H](Cc1ccc2ccccc2c1)NC(=O)[C@H](Cc1ccc(O)cc1)NC(=O)[C@H](CO)NC(=O)[C@H](Cc1c[nH]c2ccccc12)NC(=O)[C@H](Cc1c[nH]cn1)NC(=O)[C@@H]1CCC(=O)N1)C(=O)N[C@@H](CCCNC(=N)N)C(=O)N1CCC[C@H]1C(=O)NCC(N)=O [nafarelin] | three to eighteen | – |
| [D Trp^6 ] LH-RH | – | more effective |
